Experimental data reported in US11845760B2, “PRMT5 inhibitors” (AMGEN INC., priority 2020, dated 2023).
Where two headings read alike, the source gives them in different places.

Tests used:
[1] = test system: HCT116 WT cells; test: HCT116 WT cell line proliferation (CellTiter-Glo cell viability, 6 days); type: cell-based; conditions: HCT116 WT (parent) cells, 6 days of treatment, CellTiter-Glo cell viability, read-out: HCT-116 WT IC50
Method in brief: (§1)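 Viability by CellTiter-Glo after 6 days' drug exposure in wild-type HCT116 and its MTAP-null knockout, with DMSO-only control. Dosing used either 1:3 steps (top 1 or 10 μM) or 22 points in 1:2 steps (top 10 or 50 μM). IC50 taken where the fitted curve crosses 50% of control.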

[2] = test system: HCT116 MTAP null cells; test: HCT116 MTAP null cell line proliferation (CellTiter-Glo cell viability, 6 days); type: cell-based; conditions: HCT116 MTAP null cells, 6 days of treatment, CellTiter-Glo cell viability, read-out: HCT-116 MTAP null IC50
Method in brief: as §1

Compound | IC50 ([1]; Homo sapiens, HCT-116, 144 h) | IC50 ([2]; HCT116-MTAP null, 144 h) | IC50 [1] | IC50 [2]
Nc1nc2cnc(C(=O)N3CCC(F)(F)C[C@@H]3c3ccc(C(F)(F)F)cc3)cc2c2c1COC2 (single isomer, unassigned) [Example 598] | > 10000 nM | 807 nM |  | 
C[C@@H]1OCc2c1c(N)nc1cnc(C(=O)N3CCOC[C@H]3c3ccc(F)c(C(F)(F)F)c3)cc21 (racemic) [Example 355, ((3S)-4-amino-3-methyl-1,3-dihydrofuro[3,4-c][1,7]naphthyridin-8-yl)((3R)-3-(4-fluoro-3-(trifluoromethyl)phenyl)-4-morpholinyl)methanone and ((3S)-4-amino-3-methyl-1,3-dihydrofuro[3,4-c][1,7]naphthyridin-8-yl)((3S)-3-(4-fluoro-3-(trifluoromethyl)phenyl)-4-morpholinyl)methanone] | > 10000 nM | 4060 nM |  | 
Cn1ncc2c3cc(C(=O)N4CC[C@H](c5ccc(C(F)(F)F)cc5)C4)c(F)cc3nc(N)c21 [Example 437, (4-amino-7-fluoro-3-methyl-3H-pyrazolo[3,4-c]quinolin-8-yl)((3R)-3-(4-(trifluoromethyl)phenyl)-1-pyrrolidinyl)methanone] | 16000 nM | 924 nM |  | 
Cn1ncc2c(N)nc3ccc(C(=O)N4CC(c5ccc(C(F)(F)F)cc5)C4)cc3c21 [Example 408, (4-amino-1-methyl-1H-pyrazolo[4,3-c]quinolin-8-yl)(3-(4-(trifluoromethyl)phenyl)-1-azetidinyl)methanone] | 6360 nM | 118 nM |  | 
Cn1ncc2c(N)nc3ccc(C(=O)N4CCOC[C@@H]4c4ccc(C(F)(F)F)cc4)cc3c21 [Example 521, (4-amino-1-methyl-1H-pyrazolo[4,3-c]quinolin-8-yl)((3S)-3-(4-(trifluoromethyl)phenyl)-4-morpholinyl)methanone] | 2080 nM | 30 nM |  | 
Cn1ncc2c(N)nc3cc(Cl)c(C(=O)N4C[C@@H](CO)[C@H](c5ccc(C(F)(F)F)cc5F)C4)cc3c21 [Example 449, (4-amino-7-chloro-1-methyl-1H-pyrazolo[4,3-c]quinolin-8-yl)((3R,4S)-3-(2-fluoro-4-(trifluoromethyl)phenyl)-4-(hydroxymethyl)-1-pyrrolidinyl)methanone] | 145 nM | 7 nM |  | 
CCOc1ccc([C@@H]2COC[C@H](C)N2C(=O)c2ccc3nc(N)c4c(c3c2)CO[C@@H]4C)nn1 (racemic) [Example 321, ((3R)-4-amino-3-methyl-1,3-dihydrofuro[3,4-c]quinolin-8-yl)((3R,5S)-3-(6-ethoxy-3-pyridazinyl)-5-methyl-4-morpholinyl)methanone and ((3R)-4-amino-3-methyl-1,3-dihydrofuro[3,4-c]quinolin-8-yl)((3S,5R)-3-(6-ethoxy-3-pyridazinyl)-5-methyl-4-morpholinyl)methanone] | 4960 nM | 93 nM |  | 
Cc1ccc(C2COCCN2C(=O)c2ccc3nc(N)c4c(c3c2)COC4)cn1 (racemic) [Example 512, (4-amino-1,3-dihydrofuro[3,4-c]quinolin-8-yl)-[rac-(3R)-3-(6-methyl-3-pyridyl)morpholin-4-yl]methanone] | > 10000 nM | > 1000 nM |  | 
COc1ccc(C2COCCN2C(=O)c2ccc3nc(N)c4c(c3c2)COC4)cc1 (racemic) [Example 365, (4-amino-1,3-dihydrofuro[3,4-c]quinolin-8-yl)-[rac-(3S)-3-(4-methoxyphenyl)morpholin-4-yl]methanone] | > 10000 nM | 1560 nM |  | 
Nc1nc2ccc(C(=S)N3CCOC[C@@H]3c3ccc(C(F)(F)F)cc3)cc2c2c1COC2 [Example 625, (S)-(4-amino-1,3-dihydrofuro[3,4-c]quinolin-8-yl)(3-(4-(trifluoromethyl)phenyl)morpholino)methanethione] | 7260 nM | 882 nM |  | 
Nc1nc2cnc(C(=O)N3CCOC[C@H]3c3ccc(S(F)(F)(F)(F)F)cc3)cc2c2c1COC2 (single isomer, unassigned) [Example 457] | 18600 nM | 8710 nM |  | 
Nc1nc2cnc(C(=O)N3CCOCC3c3ccc(OC(F)F)c(F)c3)cc2c2c1COC2 (racemic) [Example 383, (4-amino-1,3-dihydrofuro[3,4-c][1,7]naphthyridin-8-yl)((3R)-3-(4-(difluoromethoxy)-3-fluorophenyl)-4-morpholinyl)methanone and (4-amino-1,3-dihydrofuro[3,4-c][1,7]naphthyridin-8-yl)((3S)-3-(4-(difluoromethoxy)-3-fluorophenyl)-4-morpholinyl)methanone] |  |  | 13900 nM | 437 nM
Nc1nc2cc(Cl)c(C(=O)N3CC[C@@](O)(c4ccc(C(F)(F)F)cc4)C3)cc2c2c1COC2 (single isomer, unassigned) [Example 477] | > 50000 nM | 547 nM |  | 
Cn1ncc2c3cc(C(=O)N4CCOC[C@@H]4c4ccc(S(F)(F)(F)(F)F)cc4)c(F)cc3nc(N)c21 [Example 544, (4-amino-7-fluoro-3-methyl-3H-pyrazolo[3,4-c]quinolin-8-yl)((3S)-3-(4-(pentafluoro-lambda~6~- sulfanyl)phenyl)-4-morpholinyl)methanone] | 1010 nM | 24 nM |  | 
C[C@H]1OCc2c1c(N)nc1ccc(C(=O)N3CC[C@](F)(c4ccc(C(F)(F)F)cc4)C3)cc21 [Example 438, ((3R)-4-amino-3-methyl-1,3-dihydrofuro[3,4-c]quinolin-8-yl)((3S)-3-fluoro-3-(4-(trifluoromethyl)phenyl)-1-pyrrolidinyl)methanone] | 15200 nM | 878 nM |  | 
N#Cc1ccc([C@H]2COCCN2C(=O)c2ccc3nc(N)c4c(c3c2)COC4)nc1 (single isomer, unassigned) [Example 577] | > 10000 nM | 873 nM |  | 
Nc1nc2cnc(C(=O)N3CCOCC3c3ccc(C(F)(F)F)cn3)cc2c2c1COC2 (racemic) [Example 494, (4-amino-1,3-dihydrofuro[3,4-c][1,7]naphthyridin-8-yl)-[rac-(3S)-3-[5-(trifluoromethyl)-2-pyridyl]morpholin-4-yl]methanone] | 14000 nM | 352 nM |  | 
Cc1n[nH]c2c1c(N)nc1cnc(C(=O)N3CCOC[C@@H]3c3ccc(C(F)(F)F)cc3)cc12 [Example 406, (4-amino-3-methyl-1H-pyrazolo[4,3-c][1,7]naphthyridin-8-yl)((3S)-3-(4-(trifluoromethyl)phenyl)-4-morpholinyl)methanone] | 5640 nM | 155 nM |  | 
Nc1nc2ccc(C(=O)N3CCOC[C@H]3c3ccc(OC(F)(F)F)nc3)cc2c2c1COC2 (single isomer, unassigned) [Example 591] | > 10000 nM | 6160 nM |  | 
C[C@H]1OCc2c1c(N)nc1ccc(C(=O)N3CCOC[C@H]3c3ccc(C(F)(F)F)cn3)cc21 (racemic) [Example 343, ((3R)-4-amino-3-methyl-1,3-dihydrofuro[3,4-c]quinolin-8-yl)((3R)-3-(5-(trifluoromethyl)-2-pyridinyl)-4-morpholinyl)methanone and ((3R)-4-amino-3-methyl-1,3-dihydrofuro[3,4-c]quinolin-8-yl)((3S)-3-(5-(trifluoromethyl)-2-pyridinyl)-4-morpholinyl)methanone] | 16200 nM | 308 nM |  | 
Nc1nc2cc(Cl)c(C(=O)N3CCOCC3c3ccc(F)c(C(F)(F)F)c3)cc2c2c1COC2 (racemic) [Example 350, (4-amino-7-chloro-1,3-dihydrofuro[3,4-c]quinolin-8-yl)((3R)-3-(4-fluoro-3-(trifluoromethyl)phenyl)-4-morpholinyl)methanone and (4-amino-7-chloro-1,3-dihydrofuro[3,4-c]quinolin-8-yl)((3S)-3-(4-fluoro-3-(trifluoromethyl)phenyl)-4-morpholinyl)methanone] |  |  | 2890 nM | 107 nM
CCOc1ccc([C@@H]2COCCN2C(=O)c2ccc3nc(N)c4c(c3c2)CO[C@@H]4C)nn1 (racemic) [Example 393, ((3R)-4-amino-3-methyl-1,3-dihydrofuro[3,4-c]quinolin-8-yl)((3R)-3-(6-ethoxy-3-pyridazinyl)-4-morpholinyl)methanone and ((3R)-4-amino-3-methyl-1,3-dihydrofuro[3,4-c]quinolin-8-yl)((3S)-3-(6-ethoxy-3-pyridazinyl)-4-morpholinyl)methanone] | > 50000 nM | 971 nM |  | 
Nc1nc2ncc(C(=O)N3CCOCC3c3ccc(C(F)(F)F)cc3)cc2c2c1COC2 (racemic) [Example 483, rac-(4-amino-1,3-dihydrofuro[3,4-c][1,8]naphthyridin-8-yl)(3-(4-(trifluoromethyl)phenyl)morpholino)methanone] | > 10000 nM | > 1000 nM |  | 
Cn1ncc2c(N)nc3ccc(C(=O)N4CCOC[C@@H]4c4ccc(C(F)(F)C(F)(F)F)cc4)cc3c21 [Example 409, (4-amino-1-methyl-1H-pyrazolo[4,3-c]quinolin-8-yl)((3S)-3-(4-(pentafluoroethyl)phenyl)-4-morpholinyl)methanone] | 1670 nM | 29 nM |  | 
CCOc1ccc([C@H]2COC[C@@H](C)N2C(=O)c2cc3c4c(c(N)nc3cn2)COC4)nn1 [Example 535, (4-amino-1,3-dihydrofuro[3,4-c][1,7]naphthyridin-8-yl)((3S,5R)-3-(6-ethoxy-3-pyridazinyl)-5-methyl-4-morpholinyl)methanone] | 3160 nM | 64 nM |  | 
C[C@H]1OCc2c1c(N)nc1ccc(C(=O)N3CC(c4ccc(C(F)(F)F)cn4)C3)cc21 [Example 421, ((3R)-4-amino-3-methyl-1,3-dihydrofuro[3,4-c]quinolin-8-yl)(3-(5-(trifluoromethyl)-2-pyridinyl)-1-azetidinyl)methanone] | > 50000 nM | 914 nM |  | 
